Where two headings read alike, the source gives them in different places.

One assay addresses T1, CDK4 (Homo sapiens, UniProt P11802).
T1 construct: endogenous in cells; host or cells: Calu-1
Description: CDK4 percentage degradation in Calu-1 cells (immunoblotting). Type of assay: cell-based. Particulars: for inhibition at 0.2 µM: read-out: CDK4 Degradation (200 nM). The gist of the method:
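CDK4 degradation was measured by immunoblotting. Cells were washed in cold PBS and lysed in RIPA buffer with inhibitors for 30 min at 4° C., then spun at 13,000 rpm to clear. After BCA protein determination, lysates were heated at 99° C. for 5 min in Laemmli buffer, resolved on SDS-PAGE, imaged on a ChemiDoc MP with ECL substrate, and band intensities quantified.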
A general note: In western blotting, separated proteins are transferred to a membrane and probed.

The next assay has as its system cyclin D1. In words: Cyclin D1 percentage degradation in Calu-1 cells (immunoblotting). Type of assay: cell-based. Particulars: 16 hours. The gist of the method:
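Cyclin D1 degradation was assessed by western blot. Clarified lysates, obtained by RIPA lysis with inhibitors and centrifugation at 13,000 rpm, were normalized by BCA protein assay and separated by SDS-PAGE. Bands were detected with Western ECL Substrate on a Bio-Rad ChemiDoc MP Imaging system and quantified in Image Lab software to derive percentage degradation.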

T1 sequence (P11802 2-303 limits assumed): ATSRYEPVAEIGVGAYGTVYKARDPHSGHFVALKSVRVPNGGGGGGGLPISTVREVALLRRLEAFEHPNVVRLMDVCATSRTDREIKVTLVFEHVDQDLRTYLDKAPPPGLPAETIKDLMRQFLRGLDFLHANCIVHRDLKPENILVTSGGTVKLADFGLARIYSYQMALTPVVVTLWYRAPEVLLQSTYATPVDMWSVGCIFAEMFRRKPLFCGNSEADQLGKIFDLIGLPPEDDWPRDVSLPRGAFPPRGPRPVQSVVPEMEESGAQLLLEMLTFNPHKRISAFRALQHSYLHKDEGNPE
T1 sequence (P24385 whole entry partner): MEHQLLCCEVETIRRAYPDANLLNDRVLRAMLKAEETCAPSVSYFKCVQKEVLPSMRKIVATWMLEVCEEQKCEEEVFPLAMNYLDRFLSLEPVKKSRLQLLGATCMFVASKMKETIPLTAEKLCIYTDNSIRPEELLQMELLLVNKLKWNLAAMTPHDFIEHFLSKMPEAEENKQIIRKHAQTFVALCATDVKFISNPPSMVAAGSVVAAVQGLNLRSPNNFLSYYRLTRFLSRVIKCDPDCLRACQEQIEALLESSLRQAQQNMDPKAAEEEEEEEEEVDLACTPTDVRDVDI
T1 sequence (Q16531 2-1140 limits assumed, further chain): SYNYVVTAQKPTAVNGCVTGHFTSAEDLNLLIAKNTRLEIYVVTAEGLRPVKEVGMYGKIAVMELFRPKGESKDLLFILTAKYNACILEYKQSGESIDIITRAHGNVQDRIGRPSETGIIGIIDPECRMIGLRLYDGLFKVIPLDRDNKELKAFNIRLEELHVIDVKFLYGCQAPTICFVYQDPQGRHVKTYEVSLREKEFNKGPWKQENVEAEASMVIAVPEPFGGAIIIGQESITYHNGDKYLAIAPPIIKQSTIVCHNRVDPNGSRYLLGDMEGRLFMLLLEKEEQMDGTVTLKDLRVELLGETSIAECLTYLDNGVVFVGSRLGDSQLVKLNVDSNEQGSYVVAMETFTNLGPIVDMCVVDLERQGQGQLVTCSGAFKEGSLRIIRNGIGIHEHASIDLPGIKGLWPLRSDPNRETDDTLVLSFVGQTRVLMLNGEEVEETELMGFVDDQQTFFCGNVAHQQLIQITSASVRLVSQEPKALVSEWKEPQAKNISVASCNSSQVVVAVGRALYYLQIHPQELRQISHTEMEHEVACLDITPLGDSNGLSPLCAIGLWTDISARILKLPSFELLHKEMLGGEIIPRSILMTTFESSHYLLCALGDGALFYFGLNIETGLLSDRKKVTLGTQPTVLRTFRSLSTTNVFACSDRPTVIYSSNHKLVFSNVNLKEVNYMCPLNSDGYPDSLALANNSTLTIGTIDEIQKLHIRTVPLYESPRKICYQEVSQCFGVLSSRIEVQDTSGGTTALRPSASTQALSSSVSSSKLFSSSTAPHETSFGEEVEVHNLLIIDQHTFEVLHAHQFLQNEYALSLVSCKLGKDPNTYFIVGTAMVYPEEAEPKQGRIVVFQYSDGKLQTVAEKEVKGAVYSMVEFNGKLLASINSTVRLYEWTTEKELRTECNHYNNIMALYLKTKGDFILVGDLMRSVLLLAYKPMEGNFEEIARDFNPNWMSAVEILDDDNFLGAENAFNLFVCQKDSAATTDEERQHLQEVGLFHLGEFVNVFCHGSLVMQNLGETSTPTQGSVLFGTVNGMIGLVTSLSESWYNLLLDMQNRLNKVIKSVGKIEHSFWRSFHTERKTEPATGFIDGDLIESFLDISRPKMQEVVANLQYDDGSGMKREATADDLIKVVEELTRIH

In the case of `CC(=O)c1c(C)c2cnc(Nc3ccc(N4CCN(CC(=O)NCCCCCNc5cc(C)ccc5C(=O)Nc5ccc(N(C)C)nn5)CC4)cn3)nc2n(C2CCCC2)c1=O` [CPD-373, 2-((5-(2-(4-(6-((6-Acetyl-8-cyclopentyl-5-methyl-7-oxo-7,8-dihydropyrido[2,3-d]pyrimidin-2-yl)amino)pyridin-3-yl)piperazin-1-yl)acetamido)pentyl)amino)-N-(6-(dimethylamino)pyridazin-3-yl)-4-methylbenzamide], the inhibition at 0.2 µM at CDK4 (Calu-1 cells, 200 nM, 16 hours) was in the range of 50 to 80%. For the same molecule, the “CyclinD1 Degradation (200 nM)” value in the assay with cyclin D1 is given as “A (protein percentage degradation >=80%)”.
For `CC(=O)c1c(C)c2cnc(Nc3ccc(N4CCN(CC(=O)NCCOCCOCCNc5ccc(C)c(C(=O)Nc6nc(C)c(C)s6)c5)CC4)cn3)nc2n(C2CCCC2)c1=O` [CPD-089, 5-((2-(2-(2-(2-(4-(6-((6-Acetyl-8-cyclopentyl-5-methyl-7-oxo-7,8-dihydropyrido[2,3-d]pyrimidin-2-yl)amino)pyridin-3-yl)piperazin-1-yl)acetamido)ethoxy)ethoxy)ethyl)amino)-N-(4,5-dimethylthiazol-2-yl)-2-methylbenzamide], the inhibition at 0.2 µM on CDK4 (Calu-1 cells, 200 nM, 16 hours) is 50 to 80%. For the same molecule, the “CyclinD1 Degradation (200 nM)” value in the assay on cyclin D1 is “B (protein percentage degradation <80%, and >=50%)”.
For the molecule `CC(=O)c1c(C)c2cnc(Nc3ccc(N4CCN(C(=O)CCCCCCCNc5cccc(C(=O)Nc6nc(C)c(C)s6)c5C)CC4)cn3)nc2n(C2CCCC2)c1=O` [CPD-125, 3-((8-(4-(6-((6-Acetyl-8-cyclopentyl-5-methyl-7-oxo-7,8-dihydropyrido[2,3-d]pyrimidin-2-yl)amino)pyridin-3-yl)piperazin-1-yl)-8-oxooctyl)amino)-N-(4,5-dimethylthiazol-2-yl)-2-methylbenzamide], the inhibition at 0.2 µM at CDK4 (Calu-1, 16 h) is under 30%. Moreover, in the assay with cyclin D1, the “CyclinD1 Degradation (200 nM)” value is reported as “D (protein percentage degradation <30%)”.
In the case of `Cc1nc(NC(=O)c2ccccc2NC(=O)CCCCCCNC(=O)CN2CCN(c3ccc(Nc4ncc5cc(C(=O)N(C)C)n(C6CCCC6)c5n4)nc3)CC2)sc1C` [CPD-291, 7-Cyclopentyl-2-((5-(4-(2-((7-((2-((4,5-dimethylthiazol-2-yl)carbamoyl)phenyl)amino)-7-oxoheptyl)amino)-2-oxoethyl)piperazin-1-yl)pyridin-2-yl)amino)-N,N-dimethyl-7H-pyrrolo[2,3-d]pyrimidine-6-carboxamide], the inhibition at 10 µM at CDK4 (Calu-1 cells, 10 μM, 16 hours, read-out: CDK4 Degradation (10 μM)) fell in the range of 30 to 50%. The “CyclinD1 Degradation (10 μM)” value with cyclin D1 (10 μM) is “B (protein percentage degradation < 80%, and >= 50%)”.
`CCc1nc(NC(=O)c2ccccc2NC(=O)CCOCCOCCNC(=O)CN2CCN(c3ccc(Nc4ncc5c(C)c(C(C)=O)c(=O)n(C6CCCC6)c5n4)nc3)CC2)sc1C` [CPD-075, 2-(3-(2-(2-(2-(4-(6-((6-Acetyl-8-cyclopentyl-5-methyl-7-oxo-7,8-dihydropyrido[2,3-d]pyrimidin-2-yl)amino)pyridin-3-yl)piperazin-1-yl)acetamido)ethoxy)ethoxy)propanamido)-N-(4-ethyl-5-methylthiazol-2-yl)benzamide]: the inhibition at 0.2 µM at CDK4 (Calu-1 cells, 200 nM, 16 hours) was over 80%. Further, in the assay on cyclin D1, the “CyclinD1 Degradation (200 nM)” value was “A (protein percentage degradation >=80%)”.
`CC(=O)c1c(C)c2cnc(Nc3ccc(N4CCN(CC(=O)NCCCCCCNc5ccc(C)c(C(=O)Nc6nc(C)c(C)s6)c5)CC4)cn3)nc2n(C2CCCC2)c1=O` [CPD-094, 5-((6-(2-(4-(6-((6-Acetyl-8-cyclopentyl-5-methyl-7-oxo-7,8-dihydropyrido[2,3-d]pyrimidin-2-yl)amino)pyridin-3-yl)piperazin-1-yl)acetamido)hexyl)amino)-N-(4,5-dimethylthiazol-2-yl)-2-methylbenzamide]: on CDK4 (Calu-1 cells, 200 nM, 16 hours), the inhibition at 0.2 µM was under 30%. For the same molecule, the “CyclinD1 Degradation (200 nM)” value in the assay with cyclin D1 is “D (protein percentage degradation <30%)”.
For `CC(=O)c1c(C)c2cnc(Nc3ccc(N4CCN(C(=O)CCOCCNc5cccc(C(=O)Nc6nc(C)c(C)s6)c5C)CC4)cn3)nc2n(C2CCCC2)c1=O` [CPD-120, 3-((2-(3-(4-(6-((6-Acetyl-8-cyclopentyl-5-methyl-7-oxo-7,8-dihydropyrido[2,3-d]pyrimidin-2-yl)amino)pyridin-3-yl)piperazin-1-yl)-3-oxopropoxy)ethyl)amino)-N-(4,5-dimethylthiazol-2-yl)-2-methylbenzamide], on CDK4 (Calu-1, 16 h), the inhibition at 0.2 µM is under 30%. In addition, the “CyclinD1 Degradation (200 nM)” value in the assay on cyclin D1 is recorded as “D (protein percentage degradation <30%)”.
With `CC(=O)c1c(C)c2cnc(Nc3ccc(N4CCN(CC(=O)NCCCCCCCNc5cc(C)ccc5C(=O)Nc5nc(C)c(C)s5)CC4)cn3)nc2n(C2CCCC2)c1=O` [CPD-368, 2-((7-(2-(4-(6-((6-Acetyl-8-cyclopentyl-5-methyl-7-oxo-7,8-dihydropyrido[2,3-d]pyrimidin-2-yl)amino)pyridin-3-yl)piperazin-1-yl)acetamido)heptyl)amino)-N-(4,5-dimethylthiazol-2-yl)-4-methylbenzamide], the inhibition at 0.2 µM at CDK4 (Calu-1 cells, 200 nM, 16 hours) was over 80%. In addition, the “CyclinD1 Degradation (200 nM)” value in the assay with cyclin D1 is given as “A (protein percentage degradation >=80%)”.
Consider `CC(=O)c1c(C)c2cnc(Nc3ccc(N4CCN(CC(=O)NCCOCCOCCC(=O)Nc5ccccc5C(=O)Nc5ccc(OC(C)C)nn5)CC4)cn3)nc2n(C2CCCC2)c1=O` [CPD-351, 2-(3-(2-(2-(2-(4-(6-((6-Acetyl-8-cyclopentyl-5-methyl-7-oxo-7,8-dihydropyrido[2,3-d]pyrimidin-2-yl)amino)pyridin-3-yl)piperazin-1-yl)acetamido)ethoxy)ethoxy)propanamido)-N-(6-isopropoxypyridazin-3-yl)benzamide], for which the inhibition at 0.2 µM at CDK4 (Calu-1 cells, 200 nM, 16 hours) is under 30%. Further, in the assay with cyclin D1, the “CyclinD1 Degradation (200 nM)” value was “D (protein percentage degradation <30%)”.
On to `CC(=O)c1c(C)c2cnc(Nc3ccc(N4CCN(CC(=O)NCCCCNc5cc(C)ccc5C(=O)Nc5ccc(N(C)C)nn5)CC4)cn3)nc2n(C2CCCC2)c1=O` [CPD-375, 2-((4-(2-(4-(6-((6-Acetyl-8-cyclopentyl-5-methyl-7-oxo-7,8-dihydropyrido[2,3-d]pyrimidin-2-yl)amino)pyridin-3-yl)piperazin-1-yl)acetamido)butyl)amino)-N-(6-(dimethylamino)pyridazin-3-yl)-4-methylbenzamide], for which the inhibition at 0.2 µM on CDK4 (Calu-1 cells, 200 nM, 16 hours) is 50 to 80%. Moreover, the “CyclinD1 Degradation (200 nM)” value in the assay on cyclin D1 is given as “A (protein percentage degradation >=80%)”.
In the case of `CC(=O)c1c(C)c2cnc(Nc3ccc(N4CCN(CC(=O)NCCOCCOCCC(=O)Nc5ccccc5C(=O)Nc5ncc(C)s5)CC4)cn3)nc2n(C2CCCC2)c1=O` [CPD-051, 2-(3-(2-(2-(2-(4-(6-((6-Acetyl-8-cyclopentyl-5-methyl-7-oxo-7,8-dihydropyrido[2,3-d]pyrimidin-2-yl)amino)pyridin-3-yl)piperazin-1-yl)acetamido)ethoxy)ethoxy)propanamido)-N-(5-methylthiazol-2-yl)benzamide], at CDK4 (Calu-1 cells, 200 nM, 16 hours), the inhibition at 0.2 µM is over 80%. Moreover, the “CyclinD1 Degradation (200 nM)” value in the assay on cyclin D1 is on record as “A (protein percentage degradation >=80%)”.
Turning to `CC(=O)c1c(C)c2cnc(Nc3ccc(N4CCN(CCOCCOCCOCCC(=O)Nc5ccccc5C(=O)Nc5nc(C)c(C)s5)CC4)cn3)nc2n(C2CCCC2)c1=O` [CPD-178, 2-(3-(2-(2-(2-(4-(6-((6-Acetyl-8-cyclopentyl-5-methyl-7-oxo-7,8-dihydropyrido[2,3-d]pyrimidin-2-yl)amino)pyridin-3-yl)piperazin-1-yl)ethoxy)ethoxy)ethoxy)propanamido)-N-(4,5-dimethylthiazol-2-yl)benzamide], the inhibition at 0.2 µM at CDK4 (Calu-1, 16 h) was under 30%. The “CyclinD1 Degradation (200 nM)” value in the assay with cyclin D1 is “D (protein percentage degradation <30%)”.
For `CC(=O)c1c(C)c2cnc(Nc3ccc(N4CCN(CC(=O)NCCOCCOCCOCCOCCOCCC(=O)Nc5ccccc5C(=O)Nc5nc(C)c(C)s5)CC4)cn3)nc2n(C2CCCC2)c1=O` [CPD-175, 2-(1-(4-(6-((6-Acetyl-8-cyclopentyl-5-methyl-7-oxo-7,8-dihydropyrido[2,3-d]pyrimidin-2-yl)amino)pyridin-3-yl)piperazin-1-yl)-2-oxo-6,9,12,15,18-pentaoxa-3-azahenicosan-21-amido)-N-(4,5-dimethylthiazol-2-yl)benzamide], the inhibition at 0.2 µM at CDK4 (Calu-1, 16 h) is over 80%. Besides, the “CyclinD1 Degradation (200 nM)” value with cyclin D1 is listed as “A (protein percentage degradation >=80%)”.
As to `CC(=O)c1c(C)c2cnc(Nc3ccc(N4CCN(CC(=O)NCCOCCOCCOCCOCCC(=O)Nc5ccccc5C(=O)Nc5nc(C)c(C)s5)CC4)cn3)nc2n(C2CCCC2)c1=O` [CPD-170, 2-(1-(4-(6-((6-Acetyl-8-cyclopentyl-5-methyl-7-oxo-7,8-dihydropyrido[2,3-d]pyrimidin-2-yl)amino)pyridin-3-yl)piperazin-1-yl)-2-oxo-6,9,12,15-tetraoxa-3-azaoctadecan-18-amido)-N-(4,5-dimethylthiazol-2-yl)benzamide], the inhibition at 0.2 µM on CDK4 (Calu-1 cells, 200 nM, 16 hours) was in the range of 50 to 80%. Also, the “CyclinD1 Degradation (200 nM)” value in the assay with cyclin D1 is listed as “A (protein percentage degradation >=80%)”.
As to `CC(=O)c1c(C)c2cnc(Nc3ccc(N4CCN(CC(=O)NCCOCCOCCOCCOCCOCCNc5ccc(C(=O)Nc6ncc(C7CC7)s6)c(C)c5)CC4)cn3)nc2n(C2CCCC2)c1=O` [CPD-029, 4-((1-(4-(6-((6-Acetyl-8-cyclopentyl-5-methyl-7-oxo-7,8-dihydropyrido[2,3-d]pyrimidin-2-yl)amino)pyridin-3-yl)piperazin-1-yl)-2-oxo-6,9,12,15,18-pentaoxa-3-azaicosan-20-yl)amino)-N-(5-cyclopropylthiazol-2-yl)-2-methylbenzamide], on CDK4 (Calu-1 cells, 200 nM, 16 hours), the inhibition at 0.2 µM was under 30%. In the assay on cyclin D1, the “CyclinD1 Degradation (200 nM)” value was “D (protein percentage degradation <30%)”.

The values are drawn from patent publication US20250235543A1, “MODIFIED PROTEINS AND PROTEIN DEGRADERS” (Cullgen (Shanghai), Inc., priority 2021, published 2025).
